In patent US9458194B2, “Compounds useful in the treatment and/or care of the skin and their cosmetic or pharmaceutical compositions” (Lubrizol Advanced Materials, Inc., priority 2013, dated 2016):
Values joined by “and” are separate entries in the source; they are usually repeats but may differ in a detail not shown here. Identical values can stand only once.

Experiments:
Format in all cases: cell-based
[1] = system: human dermal fibroblasts (HDFa); test: Gene expression profile of human dermal fibroblasts (microarray, GSEA); details: 0.05 mg/ml, 24 hours
Protocol: Adult human dermal fibroblasts (HDFa) were seeded (12.5×10^4 cells/vial T25 cm^2), and were incubated in complete medium 106 for 7 days at 37° C. in an atmosphere with 5% CO2. After the incubation, the cells were treated for 24 hours at 37° C. in an atmosphere with 5% CO2 with 0.05 mg/ml of the compound Ac-L-Asp-L-Val-L-Lys-L-Tyr-OH in complete medium 106 or in complete medium 106 as a negative control. The incubations and the treatments were carried out in duplicate for each condition.
After the treatments, RNA was extracted and purified, the quality and quantity was verified and the marking was carried out as was the hybridization of the samples in a human gene expression microarray (ASurePrint G3, Agilent). […] Next an evaluation of the genes by means of GSEA was carried out to encompass these genes according to their function/biological route. 24 hours after the treatments, the cells were lysed and the RNA was extracted and purified from each replica and each condition by means of the RNeasyPlus Mini kit by Qiagen. The lysed cells were briefly homogenized and the RNases were inactivated. The samples were passed through special RNA binding columns and after several microcentrifugation washes to eliminate contaminants and impurities, the purified RNA was eluted with 50 μl of ultrapure water. The purity, integrity and concentration of the RNA obtained were evaluated by means of spectrophotometry (Nanodrop) and with a bioanalyzer (Agilent Bioanalyzer).
The normalized values obtained with the treatment were compared with the normalized values obtained with the negative control to obtain genes with differential expression. […] The values obtained are also evaluated by means of GSEA (Gene Set Analysis Enrichment) to group together the genes with differential expression in terms of Gene Ontology and Biological Routes and the sets of genes with an expected proportion of incorrectly rejected null hypotheses were selected as significant (FDR) <25%. The results obtained are shown below in three different tables in which different families of genes are grouped together (collagen genes, genes involved in collagen synthesis and genes involved in cell adhesion).

fibulin-5 = test: Immunofluorescence of fibulin-5 protein expression in human dermal fibroblasts; details: 0.5 mg/mL, 48 hours, HDFa
Protocol: (§1) In this experiment the number of times that the expression of the proteins fibulin-5 and LOXL1 in human dermal fibroblasts is increased with regard to the basal levels in untreated cells (negative control) when treating the cells with 0.5 mg/ml of the product Ac-L-Asp-L-Val-L-Lys-L-Tyr-OH and it is compared with the effect of Interleukin-1β (IL-1β) at 20 ng/ml and TGF-β at 5 ng/ml (positive controls), which increase an average of 1.5 times and 2 times, respectively, the expression of these proteins, in the same conditions.
(§2) Adult human dermal fibroblasts were seeded (HDFa) (2.5×10^3 cells/well) in a 96-well transparent plate, treated with polylysine, and were incubated in complete medium 106 for 72 hours at 37° C. in an atmosphere with 5% CO2. After the incubation, the cells were treated with the different compounds in complete medium 106 for 48 hours at 37° C. in an atmosphere with 5% CO2. As positive controls of increase of the expression of the proteins fibulin-5 and LOXL1, 5 ng/ml of TGF-β and 20 ng/ml of IL-1β were used and as a negative control untreated cells were used, just with complete medium 106. The incubations and the treatments were carried out in quadruplicate for each condition. After the treatment, the levels of expression of both proteins were quantified relatively by using specific fluorescent antibodies, photographic recording by microscopy and subsequent quantification of the fluorescent signal using image processing software, the number of total cells by fluorescent staining of the nuclei (DAPI) and subsequent quantification in the same images. For the determination of the expression of the proteins fibulin-5 and LOXL1 the cells were washed with PBS 48 hours after the treatments and were fixed with paraformaldehyde. Next, duplicates of each treatment were used to mark separately the fibulin-5 and LOXL1 proteins. For each of the proteins a specific primary monoclonal antibody was used (Abcam). After the primary incubation, the cells were washed with PBS and the secondary marking was carried out with specific fluorescent polyclonal antibodies for each primary antibody. For fibulin-5 an Alexa Fluor® 594 (red) secondary antibody was used and for LOXL1 an Alexa Fluor® 488 (green) secondary antibody was used. 16 hours later all the samples were stained with DAPI (4′,6-Diamidino-2-Phenylindole), fluorescent marker for the staining of nuclei, and the photographic recording was carried out by fluorescence microscopy in a Leica microscope. 2-4 images were taken per condition and per protein and the fluorescent signals were quantified (IOD) corresponding to each protein and the nuclei by means of image analysis software. The fibulin-5 and LOXL1 signals were normalized according to the number of total nuclei for each image. 3 independent assays were carried out.

LOXL1 = test: Immunofluorescence of LOXL1 protein expression in human dermal fibroblasts; details: 0.5 mg/mL, 48 hours, HDFa
Protocol: as §1
as §2, with “For the determination of the expression of the proteins fibulin-5 and LOXL1 the cells were washed with PBS 48 hours after the treatments and were fixed with paraformaldehyde. Next, duplicates of each treatment were used to mark separately the fibulin-5 and LOXL1 proteins. For each of the proteins a specific primary monoclonal antibody was used (Abcam). After the primary incubation, the cells were washed with PBS and the secondary marking was carried out with specific fluorescent polyclonal antibodies for each primary antibody. For fibulin-5 an Alexa Fluor® 594 (red) secondary antibody was used and for LOXL1 an Alexa Fluor® 488 (green) secondary antibody was used.” left out, “The fibulin-5 and LOXL1 signals were normalized according to the number of total nuclei for each image. 3 independent assays were carried out.” left out

Substance: Ac-L-Asp-L-Val-L-Lys-L-Tyr-OH (Ac-DVKY-OH)
- % Expression induction ([1]; ACTN1 (Actinin, alpha 1)): 27.4%
- % Expression induction ([1]; CAPNS1 (Calpain, small subunit 1)): 22.1%
- % Expression induction ([1]; CAPNS2 (Calpain, small subunit 2)): 17.9%
- % Expression induction ([1]; COL1A2 (Collagen, type-I, alpha 2)): 31.1%
- % Expression induction ([1]; COL4A1 (Collagen, type-IV, alpha 1)): 18.9%
- % Expression induction ([1]; COL4A2 (Collagen, type-IV, alpha 2)): 8.3%
- % Expression induction ([1]; COL6A2 (Collagen, type-VI, alpha 2)): 16.0%
- % Expression induction ([1]; COL6A3 (Collagen, type-VI, alpha 3)): 18.6%
- % Expression induction ([1]; COL11A1 (Collagen, type-XI, alpha 1)): 7.2%
- % Expression induction ([1]; COL14A1 (Collagen, type-XIV, alpha 1)): 36.1%
- % Expression induction ([1]; COL22A1 (Collagen, type-XXII, alpha 1)): 7.7%
- % Expression induction ([1]; COL27A1 (Collagen, type-XXVII, alpha 1)): 14.2%
- % Expression induction ([1]; GSN (Gelsolin)): 30.1%
- % Expression induction ([1]; ITGB1 (Integrin, beta 1)): 33.0%
- % Expression induction ([1]; PCOLCE (Procollagen C-endopeptidase enhancer)): 22.4%
- % Expression induction ([1]; PFN1 (Profilin 1)): 36.8%
- % Expression induction ([1]; PLOD3 (Procollagen-lysine, 2-oxoglutarate 5-dioxygenase 3)): 20.7%
- % Expression induction ([1]; ROCK1 (Rho-associated, coiled-coil containing protein kinase 1)): 22.7%
- % Expression induction ([1]; SERPINH1 (heat shock protein 47)): 25.3%
- % Expression induction ([1]; TLN1 (Talin 1)): 27.5%
- % Expression induction ([1]; VCL (Vinculin)): 4.2%
- % Expression induction ([1]; ZYX (Zyxin)): 35.7%
- Increase in the expression of the protein fibulin-5 with regard to the negative control (fibulin-5): 134% and 133.90%
- Increase in the expression of the protein LOXL1 with regard to the negative control (LOXL1): 73% and 72.71%
